Read-outs that look alike come from different tables or passages of the source. *1 amine or outer side, *2 acyl side, *3 side chain or, on linkers, in order; H or OH if unused. Where a SMILES comes first, the peptide text is derived from it. Bridges are numbered along the chain shown (N, C = ends). [ ]: non-standard residue; d: D form. The star is where a group is joined. ξ: configuration not given here. Orn(4R-OH,5R-OH) = O=C([C@H](C[C@@H](O)[C@@H](O)N[*:3])N[*:1])[*:2]; hTyr(3S-OH,4S-OH) = N[C@H](C(=O)O)[C@H](O)[C@@H](O)c1ccc(O)cc1; ξOrn(4,5-diOH) = O=C(C(CC(O)C(O)N[*:3])N[*:1])[*:2]; ξhTyr(βξ-OH,γξ-OH) = NC(C(=O)O)C(O)C(O)c1ccc(O)cc1; Pro(3S-OH,4S-Me) = C[C@H]1CN[C@H](C(=O)O)[C@H]1O; Linoleoyl = CCCCC/C=C\C/C=C\CCCCCCCC(=O)*; ξPro(3ξ-OH,4ξ-Me) = CC1CNC(C(=O)O)C1O; Hyp = O=C(O)[CH]1C[CH](O)CN1; X1 = CCCCCC=CCC=CCCCCCCCC(=O)*
Legend:
[1] = solubility; type: physicochemical
[2] = system: Trichophyton quinckeanum; test: disc-diffusion test, Trichophyton quinckeanum; type: cell-based; details: Table III; 1 isolate
Experimental: (§1) Antibiotic A-22082 is a useful antifungal agent. […] Antifungal activity was measured by the conventional disc-diffusion method (6-mm pads were dipped in solutions containing antibiotic A-22082; pads were placed on agar plates seeded with test organism). Table II summarizes the minimal inhibitory concentration (MIC) per disc at which antibiotic A-22082 inhibited representative organisms.
(§2) Antibiotic A-22082 is very active in in vitro disc-diffusion tests against dermatophytes.

[3] = system: Candida albicans; test: in vivo protection of Candida albicans-infected mice; details: two doses
Experimental: A measure of the protection afforded is the ED50 value [the effective dose in mg./kg. which protects 50 percent of the mice; see W. Wick et al., J. Bacteriol. 81, 233-235 (19610]. The ED50 values for antibiotic A-22082 against Candida albicans in mice were 30 mg./kg. (intraperitoneal administration) and 50 mg./kg. (subcutaneous administration).

[4] = system: Candida tropicalis; test: disc-diffusion antifungal test, Candida tropicalis; type: cell-based; details: Table II, 6-mm pads, agar plates
Experimental: as §1

[5] = system: Trichophyton gallinae; test: disc-diffusion test, Trichophyton gallinae; type: cell-based; details: Table III; 1 isolate
Experimental: as §1, §2

[6] = system: Trichophyton meginini; test: disc-diffusion test, Trichophyton meginini; type: cell-based; details: Table III; 1 isolate
Experimental: as §1, §2

[7] = system: Trichophyton mentagrophytes; test: disc-diffusion antifungal test, Trichophyton mentagrophytes; type: cell-based; details: Table II, 6-mm pads, agar plates
Experimental: as §1, §2

[8] = system: Nannizzia incurvata; test: disc-diffusion test, Nannizzia incurvata; type: cell-based; details: Table III; 1 isolate
Experimental: as §1, §2

[9] = system: Epidermatophyton floccosum; test: disc-diffusion test, Epidermatophyton floccosum; type: cell-based; details: Table III; 1 isolate
Experimental: as §1, §2

[10] = system: Trichophyton terrestre; test: disc-diffusion test, Trichophyton terrestre; type: cell-based; details: Table III; 1 isolate
Experimental: as §1, §2

[11] = electrometric titration; type: physicochemical; details: 66% aqueous dimethylformamide, initial pH 6.9
[12] = system: dermatophytes; test: in vitro activity against dermatophytes; type: cell-based; details: in words
Experimental: as §1, §2

[13] = system: mice; test: acute toxicity in mice; type: in vivo
Experimental: 3 times over 24 hours (a total of 600 mg./kg.).

[14] = system: Trichophyton schoenleinii; test: disc-diffusion test, Trichophyton schoenleinii; type: cell-based; details: Table III; 1 isolate
Experimental: as §1, §2

[15] = system: Keratinomyces ajellio; test: disc-diffusion test, Keratinomyces ajellio; type: cell-based; details: Table III; 1 isolate
Experimental: as §1, §2

[16] = system: Trichophyton rubrum; test: disc-diffusion test, Trichophyton rubrum; type: cell-based; details: Table III; 1 isolate
Experimental: as §1, §2

[17] = system: Philaphere jean salemi; test: disc-diffusion test, Philaphere jean salemi; type: cell-based; details: Table III; 1 isolate
Experimental: as §1, §2

[18] = system: Candida albicans; test: disc-diffusion antifungal test, Candida albicans; type: cell-based; details: Table II, 6-mm pads, agar plates
Experimental: as §1

[19] = system: dermatophytes; details: reported by F. Benz et al., Helv. Chim. Acta 57, 2459-2477 (1974); cited from earlier work

CCCCC/C=C\C/C=C\CCCCCCCC(=O)N[C@H]1C[C@@H](O)[C@@H](O)NC(=O)[C@@H]2[C@@H](O)[C@@H](C)CN2C(=O)[C@H]([C@@H](C)O)NC(=O)[C@H]([C@H](O)[C@@H](O)c2ccc(O)cc2)NC(=O)[C@@H]2C[C@@H](O)CN2C(=O)[C@H]([C@@H](C)O)NC1=O [antibiotic A-22082] (Linoleoyl-[Orn(4R-OH,5R-OH)]T[Hyp][hTyr(3S-OH,4S-OH)]T[Pro(3S-OH,4S-Me)]; lactam 1-C)
solubility in nonpolar organic solvents ([1]; diethyl ether, petroleum ether): insoluble | solubility in aqueous solutions ([1]; especially those having a pH greater than 7.0): soluble | solubility in organic solvents ([1]; methanol, ethanol, dimethylformamide, dimethyl sulfoxide, ethyl acetate): soluble | MIC [2]: > 1.25 mcg/disc | ED50 (effective dose which protects 50 percent of the mice) ([3]; intraperitoneal administration): 30 mg/kg | ED50 (effective dose which protects 50 percent of the mice) ([3]; subcutaneous administration): 50 mg/kg | protection against C. albicans ([3]; Candida albicans-infected mice): protection against C. albicans was provided | minimal inhibitory concentration (MIC) per disc [4]: 3.12 mcg./disc | MIC [5]: > 1.25 mcg/disc | MIC [6]: 0.0195 mcg/disc | minimal inhibitory concentration (MIC) per disc [7]: 0.078 mcg./disc | MIC [8]: 0.312 mcg/disc | MIC [9]: 1.25 mcg/disc | MIC [10]: 0.0195 mcg/disc | pKa value [11]: 12.7 | activity against dermatophytes [12]: very active | activity against dermatophytes ([12]; listed as A-22082): active against dermatophytes | signs of acute toxicity ([13]; intraperitoneal, 100 mg./kg. twice per day for three days (total 600 mg./kg.)): no signs of acute toxicity | signs of acute toxicity ([13]; ip, 200 mg./kg. 3 times over 24 hours (total 600 mg./kg.)): no signs of acute toxicity | signs of acute toxicity ([13]; subcutaneous, 100 mg./kg. twice per day for three days (total 600 mg./kg.)): no signs of acute toxicity | MIC [14]: 0.0195 mcg/disc | MIC [15]: 0.156 mcg/disc | MIC [16]: < .0098 mcg/disc | MIC [17]: > 1.25 mcg/disc | minimal inhibitory concentration (MIC) per disc [18]: 0.625 mcg./disc

CCCCCC=CCC=CCCCCCCCC(=O)NC1CC(O)C(O)NC(=O)C2C(O)C(C)CN2C(=O)C(C(C)O)NC(=O)C(C(O)C(O)c2ccc(O)cc2)NC(=O)C2CC(O)CN2C(=O)C(C(C)O)NC1=O (stereo not drawn) [Echinocandin B] (X1-[ξOrn(4,5-diOH)]T[Hyp][ξhTyr(βξ-OH,γξ-OH)]T[ξPro(3ξ-OH,4ξ-Me)]; lactam 1-C; configuration not given here)
activity against dermatophytes [19]: inactive against dermatophytes
